Test [1] concerns human iPS cells (HC-6 #10 strain). The test can be described thus: Pituitary organoid differentiation from human iPS cells, phase contrast observation of cell mass (Example 1). The format is cell-based. Conditions: JNK—IN-8 1 μM from day 0. The protocol: Human iPS cells (HC-6 #10 strain, obtained from RIKEN) were cultured under feeder-free conditions according to the method described in Scientific Reports, 4, 3594 (2014). As the feeder-free medium, StemFit medium (manufactured by Ajinomoto Co., Inc.) was used and, as the feeder-free scaffold, Laminin 511-E8 (manufactured by Nippi, Inc.) was used.
As specific maintenance culturing operation, subconfluent human iPS cells (HC-6 #10 strain) were first washed twice with 0.5 mM EDTA/PBS and further treated with 5 mM EDTA/PBS at 37° C. for 10 min. After pipetting, the cells were scraped from the surface of the culture dish and dispersed into single cells. Thereafter, the human iPS cells dispersed into single cells were seeded in a plastic culture dish coated with Laminin 511-E8, and cultured under feeder-free conditions in StemFit medium in the presence of Y-27632 (ROCK inhibiting substance, manufactured by FUJIFILM Wako Pure Chemical Corporation, 10 μM). When a 6-well plate (manufactured by Corning, for cell culturing, culture area 9.5 cm^2) was used as the plastic culture dish, the number of plated cells of the human iPS cells dispersed into single cells was adjusted to 7×10^3. One day after seeding, the entire amount of the medium was changed with StemFit medium free of Y-27632. Thereafter, once in 1-2 days, the entire amount of the medium was changed with StemFit medium free of Y-27632. […]

Test [2] has as its system human iPS cells (201B7 strain). The experiment in a line: Immunostaining of Pitx1, Lhx3 and E-cadherin in cell aggregates on day 29 (Example 3). The format is cell-based. Particulars: 1 μM from day 0. The protocol:
In Example 3, according to step shown in FIG. 3A, a cell population including cells that constitute pituitary tissue was produced. Specifically, human iPS cells (201B7 strain, obtained from Kyoto University) were cultured under feeder-free conditions according to the method described in Scientific Reports, 4, 3594 (2014). As the feeder-free medium, StemFit medium was used and, as the feeder-free scaffold, Laminin 511-E8 was used.
The aforementioned subconfluent human iPS cells were subjected to cell dispersion treatment using TrypLE Select, and further dispersed to single cells by pipetting operation. Thereafter, the aforementioned […] dispersed into single cells were suspended in 100 μl of a serum-free medium at 9000 cells per well of a non-cell-adhesive 96-well culture plate, and suspension cultured under the conditions of 37° C., 5% CO2. […]
The aforementioned cell aggregates on the 29th day after the start of differentiation induction were each fixed with 4% para-formaldehyde, and cryosections were prepared. […] After the primary antibody reaction, detection was performed using a secondary antibody (manufactured by Life Technologies) fluorescence-labeled with Alexa488, 555, and 647. […]

With `Cc1cc(NC(=O)c2cccc(NC(=O)/C=C/CN(C)C)c2)ccc1Nc1nccc(-c2cccnc2)n1` [JNK—IN-8, (E)-3-(4-(dimethylamino)but-2-enamido)-N-(3-methyl-4-((4-(pyridin-3-yl)pyrimidin-2-yl)amino)phenyl)benzamide], the “differentiation efficiency (surface covered with nonneural epithelial/placode-like tissue, unintended cells suppressed)” value in test [1] (day 28, vs no addition) is recorded as “improved”. In test [1] (day 28 of suspension culture), the “size of the cell mass, smaller in diameter than without addition of JNK inhibitor” value is “about 100 μm”. Further, in test [2], the “number of cells positive for Pitx1 and Lhx3 vs non-addition control” value was “higher”; the “proportion of the surface of the cell mass covered with E-Cadherin-positive epithelial tissue vs non-addition control” value is reported as “higher”.
